In patent publication US20090036492A1, “Novel Cercosporamide Derivative” (priority 2005, published 2009):

The molecules below were run on male KK mice (assay: Blood glucose lowering effect in diabetic KK mice). Details: Mus musculus, po, 72 h, 15 to 20 weeks old, feed containing 0.03% of the compound, three days, blood glucose on the 3rd day vs control group, read-out: Blood glucose lowering efficacy (%).
Assay type: in vivo
Description: Six-week-old male KK mice were purchased from CLEA Japan, Inc. and then were fed until 15 to 20 weeks old and affected with diabetes. The mice were individually fed during the adaptation period and the test period, and water and feed (FR2, Funabashi Farm) were freely ingested.
At the start of the experiment, after body weight measurement, blood was collected from the tail vein of the mice into a heparin-coated glass tube and centrifuged, and then plasma was separated. The glucose level in the plasma was measured by Glucoloader GXT (A&T Corp.), and individuals having a blood glucose level of about 350 mg/dl or more were selected. Groups each having 3 to 4 mice were used for the experiment, and the mice were grouped to make the average body weight and the average blood glucose level similar. Each compound was administered to a compound administration group by feeding a mixture with feed containing 0.03% of the compound. A separate group in which the mice were fed only with feed was a control group.
The experiment period (drug administration period) was three days. The grouping day was the 0th day. On the 3rd day, body weight was measured and blood was collected from the tail vein to measure the blood glucose level.
The blood glucose lowering efficacy was determined by the following formula.
Blood glucose lowering efficacy=[(Control group blood glucose level−Compound administration group blood glucose level)/Control group blood glucose level]×100

| Compound | inhibition in vivo at 0.03 % in feed |
| --- | --- |
| COc1cc(O)c2c(c1C(=O)NCc1c(C)ccc3c(F)cccc13)OC1=CC(O)=C(C(C)=O)C(=O)[C@]12C [Example 183, (9aS)-8-Acetyl-N-[(5-fluoro-2-methyl-1-naphthyl)methyl]-1,7-dihydroxy-3-methoxy-9a-methyl-9-oxo-9,9a-dihydrodibenzo[b,d]furan-4-carboxamide] | 38% |
| COc1cc(O)c2c(c1C(=O)NCc1ccc(Oc3ccc(Cl)cc3Cl)c3ccccc13)OC1=CC(O)=C(C(C)=O)C(=O)[C@]12C [Example 164, (9aS)-8-Acetyl-N-{[4-(2,4-dichlorophenoxy)-1-naphthyl]methyl}-1,7-dihydroxy-3-methoxy-9a-methyl-9-oxo-9,9a-dihydrodibenzo[b,d]furan-4-carboxamide] | 43% |
| COc1cc(O)c2c(c1C(=O)NCc1c(C)c(C)c(C)c3ccccc13)OC1=CC(O)=C(C(C)=O)C(=O)[C@]12C [Example 69, (9aS)-8-Acetyl-1,7-dihydroxy-3-methoxy-9a-methyl-N-[(2,3,4-trimethyl-1-naphthyl)methyl]-9-oxo-9,9a-dihydrodibenzo[b,d]furan-4-carboxamide] | 47% |
| COc1cc(O)c2c(c1C(=O)NCc1c(C)cc(NS(=O)(=O)c3ccc(Cl)cc3Cl)cc1C)OC1=CC(O)=C(C(C)=O)C(=O)[C@]12C [Example 111, (9aS)-8-Acetyl-N-(4-{[(2,4-dichlorophenyl)sulfonyl]amino}-2,6-dimethylbenzyl)-1,7-dihydroxy-3-methoxy-9a-methyl-9-oxo-9,9a-dihydrodibenzo[b,d]furan-4-carboxamide] | 31% |
| CCc1cc(F)c2ccccc2c1CNC(=O)c1c(OC)cc(O)c2c1OC1=CC(O)=C(C(C)=O)C(=O)[C@]12C [Example 187, (9aS)-8-Acetyl-N-[(2-ethyl-4-fluoro-1-naphthyl)methyl]-1,7-dihydroxy-3-methoxy-9a-methyl-9-oxo-9,9a-dihydrodibenzo[b,d]furan-4-carboxamide] | 44% |
| COc1cc(O)c2c(c1C(=O)NCc1c(C)c(C)cc(C)c1C)OC1=CC(O)=C(C(C)=O)C(=O)[C@]12C [Example 36, (9aS)-8-Acetyl-1,7-dihydroxy-3-methoxy-9a-methyl-9-oxo-N-(2,3,5,6-tetramethylbenzyl)-9,9a-dihydrodibenzo[b,d]furan-4-carboxamide] | 36% |
| COc1cc(O)c2c(c1C(=O)NCc1c(C)cc(C)c3ccccc13)OC1=CC(O)=C(C(C)=O)C(=O)[C@]12C [Example 171, (9aS)-8-Acetyl-1,7-dihydroxy-3-methoxy-9a-methyl-N-[(2,4-dimethyl-1-naphthyl)methyl]-9-oxo-9,9a-dihydrodibenzo[b,d]furan-4-carboxamide] | 47% |
| COc1cc(O)c2c(c1C(=O)NCc1c(C)cc(NS(=O)(=O)c3cc(C)c(Cl)cc3Cl)cc1C)OC1=CC(O)=C(C(C)=O)C(=O)[C@]12C [Example 140, (9aS)-8-Acetyl-N-(4-{[(2,4-dichloro-5-methylphenyl)sulfonyl]amino}-2,6-dimethylbenzyl)-1,7-dihydroxy-3-methoxy-9a-methyl-9-oxo-9,9a-dihydrodibenzo[b,d]furan-4-carboxamide] | 18% |
| CCCc1c(C)cc(C)c(C)c1CNC(=O)c1c(OC)cc(O)c2c1OC1=CC(O)=C(C(C)=O)C(=O)[C@]12C [Example 94, (9aS)-8-Acetyl-1,7-dihydroxy-3-methoxy-9a-methyl-9-oxo-N-(2,3,5-trimethyl-6-propylbenzyl)-9,9a-dihydrodibenzo[b,d]furan-4-carboxamide] | 44% |
| CCC#CCOc1cc(C)c(CNC(=O)c2c(OC)cc(O)c3c2OC2=CC(O)=C(C(C)=O)C(=O)[C@]23C)c(C)c1 [Example 101, (9aS)-8-Acetyl-N-[2,6-dimethyl-4-(2-pentynyloxy)benzyl]-1,7-dihydroxy-3-methoxy-9a-methyl-9-oxo-9,9a-dihydrodibenzo[b,d]furan-4-carboxamide] | 47% |
